Reference: patent publication US10039759B2, “Quinolines as FGFR kinase modulators” (priority 2011, dated 2018)
Read-outs that look alike come from different tables or passages of the source.

Columns and labels:
[1] = molecular target: T1, Ba/F3-FGFR3-transfected cells (Homo sapiens, UniProt P22607, cells depend on it, form not given); test: Ba/F3-FGFR3 (minus IL3 or plus IL3) cellular proliferation assay, Alamar Blue; type: cell-based; details: minus IL3; 24 hours, Alamar Blue
T1 construct: BAF3-FGFR3 (MIN IL3 Alamar Blue- pIC50); other: minus IL3; 24 hours, Alamar Blue
In short: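 Ba/F3-FGFR3 cells (20000 per well) in phenol red-free RPMI-1640 with 10% FBS were exposed to compound (10 μM to 0.1 nM) for 24 h at 37° C. Alamar Blue was then added for 4 h and fluorescence read (ex 540, em 590 nm) to give IC50/pIC50; the counterscreen was run with 10 ng/ml murine IL3.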

FGFR4 (h) = FGFR4 (h) (Homo sapiens, UniProt P22455); test: FGFR4 (enzymatic assay), TR-FRET; type: biochemical; details: FGFR 4 pIC50, 5 μM ATP, 60 min; pIC50 = -log IC50 (M); average if tested multiple times
[2] = molecular target: Ba/F3-FGFR4-transfected cells (Homo sapiens, UniProt P22455); test: Ba/F3-FGFR4 cellular proliferation assay, Alamar Blue; type: cell-based; details: 24 hours
In short: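 Ba/F3 cells transfected with human FGFR4, 20000 per well in phenol red-free RPMI-1640 with 10% FBS, exposed to compound (10 μM to 0.1 nM) for 24 h at 37 °C. Viability by Alamar Blue (resazurin), 4 h, fluorescence ex 540/em 590 nm; IC50 and pIC50 calculated.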

FGFR3 (h) = FGFR3 (h) (Homo sapiens, UniProt P22607); test: FGFR3 (enzymatic assay), TR-FRET; type: biochemical; details: 60 min, pIC50 = -log IC50 (M), average if tested multiple times
FGFR2 (h) = FGFR2 (h) (Homo sapiens, UniProt P21802); test: FGFR2 (enzymatic assay), TR-FRET; type: biochemical; details: 60 min, pIC50 = -log IC50 (M), average if tested multiple times
[3] = molecular target: T2, Ba/F3-KDR-transfected cells (Homo sapiens, UniProt P35968, cells depend on it, form not given); test: Ba/F3-KDR (minus IL3 or plus IL3) cellular proliferation assay, Alamar Blue; type: cell-based; details: minus IL3; 24 hours, Alamar Blue
T2 construct: BAF3-KDR (MIN IL3 Alamar Blue pIC50); other: minus IL3; 24 hours, Alamar Blue
In short: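 Ba/F3-KDR cells, 20000 per well, exposed to compounds (10 μM to 0.1 nM) for 24 h at 37°C in RPMI/10% FBS, then Alamar Blue for 4 h; fluorescence ex 540/em 590 nm gives IC50 and pIC50. Counterscreen run with 10 ng/ml murine IL3.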

[4] = molecular target: T3, Ba/F3-FGFR1-transfected cells (Homo sapiens, UniProt P11362, cells depend on it, form not given); test: Ba/F3-FGFR1 (minus IL3 or plus IL3) cellular proliferation assay, Alamar Blue; type: cell-based; details: minus IL3, 24 hours
T3 construct: other: minus IL3; 24 hours, Alamar Blue
In short: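 Ba/F3-FGFR1 cells (20000/well) were treated with compound (10 μM–0.1 nM) for 24 h at 37 °C. Alamar Blue was then added for 4 h, with fluorescence read at ex 540/em 590 nm to give IC50/pIC50. A counterscreen was run with 10 ng/ml murine IL3.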

[5] = 25 μM ATP, read-out: hFGFR 3 pIC50 (converted)
[6] = 0.4 μM ATP, read-out: FGFR 2 pIC50 (converted)

T3 sequence (P11362 whole entry, change not shown): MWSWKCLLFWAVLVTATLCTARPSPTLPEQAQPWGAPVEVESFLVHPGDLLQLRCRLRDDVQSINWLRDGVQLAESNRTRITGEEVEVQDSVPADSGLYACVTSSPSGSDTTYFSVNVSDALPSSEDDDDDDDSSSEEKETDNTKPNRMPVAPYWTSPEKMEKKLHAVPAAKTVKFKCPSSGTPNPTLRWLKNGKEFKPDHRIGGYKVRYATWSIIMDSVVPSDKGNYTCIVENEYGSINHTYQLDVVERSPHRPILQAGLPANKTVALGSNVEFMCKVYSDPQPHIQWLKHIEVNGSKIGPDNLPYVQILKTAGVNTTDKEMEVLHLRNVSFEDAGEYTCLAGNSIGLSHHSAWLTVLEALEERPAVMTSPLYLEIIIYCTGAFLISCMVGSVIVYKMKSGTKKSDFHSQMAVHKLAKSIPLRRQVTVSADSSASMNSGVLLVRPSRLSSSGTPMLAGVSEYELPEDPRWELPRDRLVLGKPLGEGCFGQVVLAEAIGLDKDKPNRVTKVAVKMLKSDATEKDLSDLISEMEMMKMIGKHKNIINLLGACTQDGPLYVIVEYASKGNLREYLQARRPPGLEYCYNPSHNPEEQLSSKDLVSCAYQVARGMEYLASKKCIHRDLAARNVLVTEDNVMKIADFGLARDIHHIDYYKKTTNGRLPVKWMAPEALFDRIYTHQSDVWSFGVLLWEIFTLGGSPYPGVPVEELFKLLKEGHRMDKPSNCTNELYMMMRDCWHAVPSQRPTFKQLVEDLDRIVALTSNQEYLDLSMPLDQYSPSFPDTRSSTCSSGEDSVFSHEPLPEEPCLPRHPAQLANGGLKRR
Sequence of Ba/F3-FGFR4-transfected cells (P22455 whole entry, change not shown): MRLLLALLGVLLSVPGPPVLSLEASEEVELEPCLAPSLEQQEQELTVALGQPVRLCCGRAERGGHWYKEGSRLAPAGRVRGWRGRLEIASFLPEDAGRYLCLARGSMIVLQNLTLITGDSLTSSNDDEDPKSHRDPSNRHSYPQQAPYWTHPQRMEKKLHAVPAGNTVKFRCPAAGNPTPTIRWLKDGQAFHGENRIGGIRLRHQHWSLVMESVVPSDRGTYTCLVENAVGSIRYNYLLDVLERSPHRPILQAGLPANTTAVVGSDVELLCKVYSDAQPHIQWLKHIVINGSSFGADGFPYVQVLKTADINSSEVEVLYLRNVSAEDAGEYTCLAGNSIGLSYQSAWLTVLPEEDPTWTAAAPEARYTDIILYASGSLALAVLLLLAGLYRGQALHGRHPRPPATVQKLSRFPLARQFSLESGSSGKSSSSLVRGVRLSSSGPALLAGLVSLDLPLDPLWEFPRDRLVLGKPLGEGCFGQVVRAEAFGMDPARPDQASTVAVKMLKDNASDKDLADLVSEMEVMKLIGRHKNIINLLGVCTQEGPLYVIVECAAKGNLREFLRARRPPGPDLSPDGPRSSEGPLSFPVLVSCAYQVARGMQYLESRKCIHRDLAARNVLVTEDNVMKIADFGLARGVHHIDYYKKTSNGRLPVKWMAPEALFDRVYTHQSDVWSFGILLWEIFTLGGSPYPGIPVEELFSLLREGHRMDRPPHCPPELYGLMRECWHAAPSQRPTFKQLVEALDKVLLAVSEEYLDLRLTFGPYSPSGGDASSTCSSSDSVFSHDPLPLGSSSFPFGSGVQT
Sequence of FGFR4 (h) (P22455 22-802): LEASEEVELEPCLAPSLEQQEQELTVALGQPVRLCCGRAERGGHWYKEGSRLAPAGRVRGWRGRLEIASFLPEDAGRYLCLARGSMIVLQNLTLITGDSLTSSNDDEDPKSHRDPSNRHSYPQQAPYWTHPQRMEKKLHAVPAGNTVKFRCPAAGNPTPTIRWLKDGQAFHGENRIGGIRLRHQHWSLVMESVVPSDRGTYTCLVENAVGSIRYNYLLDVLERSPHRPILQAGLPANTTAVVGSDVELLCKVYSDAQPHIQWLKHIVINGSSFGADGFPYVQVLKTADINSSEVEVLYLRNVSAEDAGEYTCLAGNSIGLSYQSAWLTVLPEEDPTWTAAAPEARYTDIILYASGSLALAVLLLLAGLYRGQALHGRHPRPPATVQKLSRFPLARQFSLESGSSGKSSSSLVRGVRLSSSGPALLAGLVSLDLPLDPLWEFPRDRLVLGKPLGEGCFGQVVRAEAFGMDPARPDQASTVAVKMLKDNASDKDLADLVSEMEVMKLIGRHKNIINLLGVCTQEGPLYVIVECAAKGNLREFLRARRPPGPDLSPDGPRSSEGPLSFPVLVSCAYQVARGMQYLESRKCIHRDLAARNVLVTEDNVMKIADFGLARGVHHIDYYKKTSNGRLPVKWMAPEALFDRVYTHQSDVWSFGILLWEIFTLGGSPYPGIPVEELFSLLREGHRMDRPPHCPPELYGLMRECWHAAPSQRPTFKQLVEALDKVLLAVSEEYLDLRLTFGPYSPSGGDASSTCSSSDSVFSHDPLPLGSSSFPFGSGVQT
T2 sequence (P35968 whole entry, change not shown): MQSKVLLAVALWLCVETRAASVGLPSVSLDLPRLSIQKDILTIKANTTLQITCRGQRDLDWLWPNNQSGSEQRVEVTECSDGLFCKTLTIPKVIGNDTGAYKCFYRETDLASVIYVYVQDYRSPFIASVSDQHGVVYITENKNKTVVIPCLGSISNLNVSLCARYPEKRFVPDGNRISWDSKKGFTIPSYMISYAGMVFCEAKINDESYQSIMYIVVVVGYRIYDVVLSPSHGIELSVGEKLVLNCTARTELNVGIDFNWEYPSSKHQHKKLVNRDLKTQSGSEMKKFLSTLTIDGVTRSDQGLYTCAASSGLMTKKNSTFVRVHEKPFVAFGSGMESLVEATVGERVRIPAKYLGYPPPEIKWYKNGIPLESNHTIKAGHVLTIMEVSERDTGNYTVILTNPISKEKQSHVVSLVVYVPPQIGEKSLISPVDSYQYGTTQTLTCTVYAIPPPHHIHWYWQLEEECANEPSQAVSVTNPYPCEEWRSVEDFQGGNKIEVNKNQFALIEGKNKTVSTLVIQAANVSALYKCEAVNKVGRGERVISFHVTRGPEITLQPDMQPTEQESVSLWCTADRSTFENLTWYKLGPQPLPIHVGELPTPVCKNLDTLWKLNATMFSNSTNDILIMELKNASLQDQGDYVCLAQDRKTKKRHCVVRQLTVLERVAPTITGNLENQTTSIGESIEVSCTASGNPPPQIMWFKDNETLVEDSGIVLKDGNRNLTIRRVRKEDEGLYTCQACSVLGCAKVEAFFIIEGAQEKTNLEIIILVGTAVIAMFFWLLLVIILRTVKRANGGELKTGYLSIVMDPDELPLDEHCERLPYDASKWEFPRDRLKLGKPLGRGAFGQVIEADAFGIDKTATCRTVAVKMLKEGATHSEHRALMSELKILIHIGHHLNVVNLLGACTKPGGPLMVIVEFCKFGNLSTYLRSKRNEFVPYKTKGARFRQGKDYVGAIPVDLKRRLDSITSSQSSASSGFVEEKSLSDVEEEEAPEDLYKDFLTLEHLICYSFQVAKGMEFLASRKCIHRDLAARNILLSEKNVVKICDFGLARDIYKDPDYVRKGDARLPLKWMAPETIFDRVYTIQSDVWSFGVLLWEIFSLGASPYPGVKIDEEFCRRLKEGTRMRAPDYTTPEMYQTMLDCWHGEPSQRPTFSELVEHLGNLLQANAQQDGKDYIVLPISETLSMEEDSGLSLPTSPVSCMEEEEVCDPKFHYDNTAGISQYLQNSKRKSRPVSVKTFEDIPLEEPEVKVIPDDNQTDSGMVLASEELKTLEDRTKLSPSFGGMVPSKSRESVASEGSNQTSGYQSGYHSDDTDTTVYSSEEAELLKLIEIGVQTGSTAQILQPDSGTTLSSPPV
T1 sequence (P22607 whole entry, change not shown): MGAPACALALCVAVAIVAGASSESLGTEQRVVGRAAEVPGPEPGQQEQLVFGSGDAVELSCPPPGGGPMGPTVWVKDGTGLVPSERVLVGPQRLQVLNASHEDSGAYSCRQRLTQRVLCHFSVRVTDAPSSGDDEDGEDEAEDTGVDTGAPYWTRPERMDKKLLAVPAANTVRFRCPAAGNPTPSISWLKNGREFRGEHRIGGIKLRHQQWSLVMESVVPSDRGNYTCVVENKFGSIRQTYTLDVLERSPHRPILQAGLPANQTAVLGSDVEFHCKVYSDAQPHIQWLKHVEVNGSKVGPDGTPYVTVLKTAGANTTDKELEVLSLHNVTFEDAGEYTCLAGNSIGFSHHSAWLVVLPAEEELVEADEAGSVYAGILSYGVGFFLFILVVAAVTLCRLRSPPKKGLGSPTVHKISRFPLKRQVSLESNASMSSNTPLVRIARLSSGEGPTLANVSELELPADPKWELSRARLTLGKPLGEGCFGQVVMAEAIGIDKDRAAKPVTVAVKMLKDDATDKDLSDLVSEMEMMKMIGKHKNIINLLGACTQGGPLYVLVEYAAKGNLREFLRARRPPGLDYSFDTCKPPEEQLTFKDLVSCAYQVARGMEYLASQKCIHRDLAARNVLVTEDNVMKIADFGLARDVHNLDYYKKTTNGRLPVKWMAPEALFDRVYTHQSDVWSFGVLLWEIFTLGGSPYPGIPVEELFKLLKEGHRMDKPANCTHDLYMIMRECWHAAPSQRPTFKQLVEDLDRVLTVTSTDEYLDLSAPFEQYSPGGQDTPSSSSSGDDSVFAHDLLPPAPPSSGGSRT

SMILES | BAF3-FGFR3 (MIN IL3 Alamar Blue- pIC50) [1] | IC50 (FGFR4 (h)) [M] | BAF3-FGFR 4 (pIC50) [2] | IC50 (FGFR3 (h); [5]) [M] | IC50 (FGFR2 (h); [6]) [M] | BAF3-KDR (MIN IL3 Alamar Blue pIC50) [3] | BAF3-FGFR1 (MIN IL3 pIC50) [4] | IC50 (FGFR3 (h); hFGFR 3 pIC50, 25 μM ATP) [M] | IC50 (FGFR2 (h); FGFR 2 pIC50, 0.4 μM ATP) [M]
COc1cc(OC)cc(N(Cc2nccn2S(=O)(=O)N(C)C)c2ccc3ncc(-c4ccncc4)cc3c2)c1 [Compound 58] | 5.57 | 1.86e-07 | <5 | 2.75e-08 | 1.29e-08 | <5 | ~5.86 | – | –
COc1cc(OC)cc(N(Cc2ncc[nH]2)c2ccc3ncc(-c4cccnc4)cc3c2)c1 [Compound 59] | 6.50 | 7.41e-09 | 6.02 | 1.74e-09 | 3.02e-09 | <5 | 6.36 | – | –
COc1cc(OC)cc(N(CC(O)C(F)(F)F)c2ccc3ncc(-c4cnn(C)c4)cc3c2)c1 (single isomer, unassigned) [Compound 25] | 6.76 | 6.03e-08 | 6.07 | 5.89e-09 | 1.95e-08 | <5 | 6.57 | – | –
COc1cc(OC)cc(N(CCCN2CCCO2)c2ccc3ncc(-c4cnn(C)c4)cc3c2)c1 [Compound 19] | 6.26 | 6.03e-08 | 5.71 | – | – | 5.1 | 6.32 | 5.62e-09 | 1.15e-08
COc1cc(OC)cc(N(CCCN)c2ccc3ncc(-c4cnn(C)c4)cc3c2)c1 [Compound 11] | 6.97 | 2e-08 | 6.39 | 3.39e-09 | 2.29e-09 | 5.42 | 6.67 | – | –
COc1cc(OC)cc(N(CCCN2CCCC2=O)c2ccc3ncc(-c4cnn(C)c4)cc3c2)c1 [Compound 10] | 6.2 | 8.32e-08 | 5.63 | 1.55e-08 | 1.29e-08 | 5.11 | 6.03 | – | –
COc1cc(OC)cc(N(Cc2ncc[nH]2)c2ccc3ncc(-c4ccncc4)cc3c2)c1 [Compound 57] | ~6.77 | 4.47e-09 | 6.16 | 1.05e-09 | 2.29e-09 | <5 | 6.75 | – | –
COc1cc(OC)cc(N(Cc2ncccn2)c2ccc3ncc(-c4cnn(C)c4)cc3c2)c1 [Compound 8] | 6.14 | 1.17e-07 | 5.64 | 3.24e-08 | 2e-08 | <5 | 6.27 | – | –
CNCCN(c1ccc2ncc(-c3cnn(C)c3)cc2c1)c1c(F)c(OC)cc(OC)c1F [Compound 43] | ~8 | 2.63e-09 | ~8.02 | 2.4e-09 | 2.45e-09 | 6.51 | 8.68 | – | –
COc1cc(OC)cc(N(CCCNCC(F)(F)F)c2ccc3ncc(-c4cnn(C)c4)cc3c2)c1 [Compound 5] | 5.67 | 9.12e-08 | 5.5 | 2.29e-08 | 3.16e-08 | 5.18 | 5.79 | – | –
COc1cc(OC)cc(C(O)c2ccc3ncc(-c4cnn(C)c4)cc3c2)c1 (stereo not shown) [Compound 12] | ~5.075 | > 9.33e-07 | <5 | 2.34e-07 | 4.17e-07 | <5 | <5.03 | – | –
COc1cc(OC)cc(N(CCNC(C)C)c2ccc3ncc(-c4cnn(CCS(C)(=O)=O)c4)cc3c2)c1 [Compound 14] | ~6.95 | 7.41e-09 | 6.7 | 3.47e-09 | 5.25e-09 | 5.45 | 7.2 | – | –
COc1cc(OC)cc(N(CCNC(C)C)c2ccc3ncc(-c4cnn(C5CCCCO5)c4)cc3c2)c1 (stereo not shown) [Compound 22] | 7.78 | 4.37e-09 | ~7.11 | 2.4e-09 | 3.89e-09 | 5.79 | 7.85 | – | –
